Active and inactive are the calls of the source. The rule behind the calls is not given here.

Experiment [1] has as its system Mus musculus. Put plainly: Antinociceptive activity in Kunming mouse model at 136.2 nmol/kg, sc in presence of beta-FNA by tail-flick test. Format: functional, organism-based.
The subject of experiment [2] is Mus musculus. The experiment in a line: Antinociceptive activity in Kunming mouse model at 136.2 nmol/kg, sc pretreated with NALM intracerebroventricularly followed by compound administration by tail-flick test. Format: functional, organism-based. Background: In hot-plate and tail-flick tests a longer latency is read as antinociception.
For experiment [3], the system named is Mus musculus. Put plainly: Antinociceptive activity in Kunming mouse model at 136.2 nmol/kg, sc in presence of NTI by tail-flick test. In kind it is functional, organism-based.
The test system of experiment [4] is Mus musculus. Put plainly: Antinociceptive activity in Kunming mouse model at 136.2 nmol/kg, sc in presence of nor-BNI by tail-flick test. Format: functional, organism-based.
Experiment [5] has as its target Delta-type opioid receptor (Homo sapiens, UniProt P41143). Put plainly: Agonist activity at human DOR expressed in CHO-K1 cells co-expressing G-alpha15 by calcium mobilization assay relative to control. Format: functional, cell-based. The following applies: filed as agonist.
The target of experiment [6] is Kappa-type opioid receptor (Homo sapiens, UniProt P41145). Put plainly: Agonist activity at human KOR expressed in CHO-K1 cells co-expressing G-alpha15 by calcium mobilization assay relative to control. In kind it is functional, cell-based. The note with it: filed as agonist. (In general: Calcium flux is commonly read through the fluorescence of an indicator in the cells.)
Sequence of Kappa-type opioid receptor (P41145 whole entry): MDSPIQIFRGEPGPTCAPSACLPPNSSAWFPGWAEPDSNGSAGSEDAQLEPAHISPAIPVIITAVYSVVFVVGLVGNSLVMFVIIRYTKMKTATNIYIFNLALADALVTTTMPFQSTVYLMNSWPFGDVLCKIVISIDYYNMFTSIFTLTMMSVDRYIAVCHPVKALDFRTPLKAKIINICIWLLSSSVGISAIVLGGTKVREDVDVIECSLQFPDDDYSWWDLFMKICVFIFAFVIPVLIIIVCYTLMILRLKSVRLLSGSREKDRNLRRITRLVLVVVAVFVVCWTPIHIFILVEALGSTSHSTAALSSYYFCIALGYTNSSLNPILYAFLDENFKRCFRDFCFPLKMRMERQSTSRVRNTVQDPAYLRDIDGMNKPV

Experiment [7] concerns Mus musculus. The experiment in a line: Antinociceptive activity in Kunming mouse model at 136.2 nmol/kg, sc pretreated with NALM subcutaneously followed by compound administration by tail-flick test. In kind it is functional, organism-based.
The next experiment concerns the target Mu-type opioid receptor (Homo sapiens, UniProt P35372). The experiment in a line: Agonist activity at human MOR expressed in CHO-K1 cells co-expressing G-alpha15 by calcium mobilization assay relative to control. The note with it: filed as agonist. Format: functional, cell-based.
Experiment [8] has as its system Mus musculus. The experiment in a line: Antinociceptive activity in Kunming mouse model assessed as latency of tail withdrawal at 13.9 nmol/kg, sc measured for 30 mins by tail-flick test relative to control. In kind it is functional. The note with it: 0.5 h.
Experiment [9] deals with Mus musculus. The experiment in a line: Antinociceptive activity in Kunming mouse model administered subcutaneously measured for 5 to 15 mins by acetic acid-induced writhing test. Format: functional. The note with it: route sc, time 5-15 min. Background: Writhing tests count abdominal constrictions after an irritant is injected.
Experiment [10] concerns Mus musculus. The experiment in a line: Antinociceptive activity in Kunming mouse model assessed as latency of tail withdrawal at 13.9 nmol/kg, sc measured for 60 mins by tail-flick test relative to control. In kind it is functional. The following applies: 1 h.
For experiment [11], the system named is Mus musculus. Put plainly: Antinociceptive activity in Kunming mouse model administered subcutaneously by tail-flick test. In kind it is functional. The following applies: route sc.
Experiment [12] deals with Mus musculus. The experiment in a line: Antinociceptive activity in Kunming mouse model assessed as latency of tail withdrawal at 13.9 nmol/kg, sc measured for 10 mins by tail-flick test relative to control. Format: functional.
Experiment [13] concerns Mus musculus. Put plainly: Inhibition of gastrointestinal motility in fasted Kunming mouse model treated subcutaneously for 15 mins followed by charcoal-gum arabic treatment measured after 30 mins. The note with it: 0.75 h, route sc, time 45 min. Format: functional.
In experiment [14] the test system is Mus musculus. The experiment in a line: Antinociceptive activity in Kunming mouse model assessed as latency of tail withdrawal at 13.9 nmol/kg, sc measured for 120 mins by tail-flick test relative to control. Format: functional. The note with it: 2 h.
For experiment [15], the system named is Mus musculus. The experiment in a line: Antinociceptive activity in Kunming mouse model administered orally by tail-flick test. In kind it is functional. The following applies: route po.
The test system of experiment [16] is Mus musculus. The experiment in a line: Antinociceptive activity in Kunming mouse model at 1416 nmol/kg, sc pretreated with NALM subcutaneously followed by compound administration by tail-flick test. In kind it is functional, organism-based.
Experiment [17] deals with Mus musculus. The experiment in a line: Antinociceptive activity in Kunming mouse model at 1416 nmol/kg, sc in presence of beta-FNA by tail-flick test. Format: functional, organism-based.
Experiment [18] concerns Mus musculus. The experiment in a line: Antinociceptive activity in Kunming mouse model at 1416 nmol/kg, sc pretreated with NALM intracerebroventricularly followed by compound administration by tail-flick test. Format: functional, organism-based.
Experiment [19] concerns Mus musculus. Put plainly: Antinociceptive activity in Kunming mouse model at 1416 nmol/kg, sc in presence of NTI by tail-flick test. Format: functional, organism-based.
Experiment [20] has as its system Mus musculus. The experiment in a line: Antinociceptive activity in Kunming mouse model at 1416 nmol/kg, sc in presence of nor-BNI by tail-flick test. In kind it is functional, organism-based.
The subject of experiment [21] is Mus musculus. The experiment in a line: Antinociceptive activity in Kunming mouse model at 1.4 nmol/kg, sc in presence of beta-FNA by tail-flick test. Format: functional, organism-based.
In experiment [22] the test system is Mus musculus. Put plainly: Antinociceptive activity in Kunming mouse model at 1.4 nmol/kg, sc in presence of nor-BNI by tail-flick test. Format: functional, organism-based.
Experiment [23] relates to Mus musculus. Put plainly: Rewarding affect in Kunming mouse model at 13.8 nmol/kg, sc pre-exposed to place conditioning for 3 days followed by compound administration and further re-exposed to place conditioning measured on day 5 by unbiased CPP method. In kind it is functional, organism-based. The note with it: time 2.0 day.
The test system of experiment [24] is Mus musculus. Put plainly: Antinociception activity in Kunming mouse model assessed as analgesic effect at 1.4 nmol/kg, sc administered daily measured for 8 days in presence of NTI by tail-flick test. Format: functional, organism-based. The note with it: time 8.0 day.
Experiment [25] has as its system Mus musculus. Put plainly: Antinociceptive activity in Kunming mouse model assessed as increase in analgesic effect at 0.014 to 1.4 nmol/kg, sc measured for 180 to 360 mins by tail-flick test. Format: functional, organism-based. The following applies: dose 0.014-1.4 nmol/kg, time 180-360 min.
Experiment [26] deals with Mus musculus. Put plainly: Antinociceptive activity in Kunming mouse model at 1.4 nmol/kg, sc pretreated with NALM subcutaneously followed by compound administration by tail-flick test. Format: functional, organism-based.
Experiment [27] concerns Mus musculus. Put plainly: Antinociception activity in Kunming mouse model assessed as analgesic effect at 1.4 nmol/kg, sc administered daily measured for 8 days by tail-flick test. In kind it is functional, organism-based. The note with it: time 8.0 day.
In experiment [28] the test system is Mus musculus. The experiment in a line: Antinociceptive activity in Kunming mouse model at 1.4 nmol/kg, sc pretreated with NALM intracerebroventricularly followed by compound administration by tail-flick test. Format: functional, organism-based.
Experiment [29] deals with Mus musculus. The experiment in a line: Antinociceptive activity in Kunming mouse model at 1.4 nmol/kg, sc in presence of NTI by tail-flick test. In kind it is functional, organism-based.
For experiment [30], the system named is Mus musculus. The experiment in a line: Induction of physical dependence in Kunming mouse model assessed as jumping behavior at 0.2 to 10 nmol/kg, sc administered as 7 escalating doses with 8 hr-intervals in-between followed by Nal administration post-2 hrs of last compound dose and further measured for 30 mins by withdrawal assay. In kind it is functional, organism-based. The note with it: dose 0.2-10 nmol/kg, time 50.5 hrs.

Sequence of Mu-type opioid receptor (P35372 whole entry): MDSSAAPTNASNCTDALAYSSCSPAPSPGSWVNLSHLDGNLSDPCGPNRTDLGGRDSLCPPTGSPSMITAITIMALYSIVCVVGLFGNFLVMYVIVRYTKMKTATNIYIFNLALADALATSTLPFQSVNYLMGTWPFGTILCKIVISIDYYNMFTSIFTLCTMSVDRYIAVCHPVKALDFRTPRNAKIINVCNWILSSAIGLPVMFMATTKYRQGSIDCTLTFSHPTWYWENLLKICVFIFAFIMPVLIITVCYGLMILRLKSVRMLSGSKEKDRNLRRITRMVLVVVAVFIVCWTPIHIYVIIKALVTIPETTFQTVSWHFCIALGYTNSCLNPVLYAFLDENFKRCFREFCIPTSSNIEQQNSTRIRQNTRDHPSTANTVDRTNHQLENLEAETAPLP
Sequence of Delta-type opioid receptor (P41143 whole entry): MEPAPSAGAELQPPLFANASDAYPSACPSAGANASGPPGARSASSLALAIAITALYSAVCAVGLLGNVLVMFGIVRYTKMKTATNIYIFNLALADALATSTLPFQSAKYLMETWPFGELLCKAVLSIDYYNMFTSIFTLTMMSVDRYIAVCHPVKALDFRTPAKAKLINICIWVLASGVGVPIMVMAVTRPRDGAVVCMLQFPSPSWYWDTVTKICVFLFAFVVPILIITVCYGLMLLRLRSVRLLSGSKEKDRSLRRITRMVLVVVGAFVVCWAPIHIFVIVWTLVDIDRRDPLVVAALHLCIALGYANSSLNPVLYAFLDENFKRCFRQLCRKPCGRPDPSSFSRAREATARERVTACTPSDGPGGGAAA

With `CC1(C)NC(=O)[C@H](NC(=O)[C@@H](N)Cc2ccc(O)cc2)CCCCNC(=O)C[C@H](C(=O)N2CCC[C@H]2C(N)=O)NC(=O)[C@H](Cc2ccccc2)NC1=O`, the outcome with Mus musculus [1], in the experiment with Mus musculus [4] and with Mus musculus [7] was inactive. The outcome in the experiment on Mus musculus [2] and in the experiment with Mus musculus [3] was Active. Besides, the results for the Emax (in experiment [5]; in experiment [6]; on Mu-type opioid receptor) were 103%, 89.2% and 100%, respectively.

Regarding `CN1C(=O)CNC(=O)[C@H](NC(=O)[C@@H](N)Cc2ccc(O)cc2)CCCCNC(=O)C[C@@H](C(=O)N2CCC[C@@H]2C(N)=O)NC(=O)[C@@H]1Cc1ccccc1`, the MPE turned out to be 93.8% in the experiment with Mus musculus [8], 93.9% with Mus musculus [10], 81.9% with Mus musculus [12] and 75.3% in the experiment on Mus musculus [14]. In addition, the ED50 with Mus musculus [9] worked out at 0.0025 µmol/kg; in the experiment on Mus musculus [11], 0.0006 µmol/kg; in the experiment on Mus musculus [13], 0.0326 µmol/kg; in the experiment with Mus musculus [15], 0.0003 µmol/kg.

In the case of `NC(=O)[C@@H]1CCCN1C(=O)[C@H]1CC(=O)NCCCC[C@@H](NC(=O)[C@@H](N)Cc2ccc(O)cc2)C(=O)NCC(=O)N[C@@H](Cc2ccccc2)C(=O)N1`, the result in the experiment with Mus musculus [16], in the experiment with Mus musculus [17] and in the experiment on Mus musculus [20] was inactive. The outcome in the experiment on Mus musculus [18] and in the experiment on Mus musculus [19] was Active. For the same compound, the figures for the Emax (in experiment [5]; in experiment [6]; on Mu-type opioid receptor) were 107%, 103% and 109%, respectively.

With `NC(=O)[C@@H]1CCCN1C(=O)[C@H]1CC(=O)NCCCC[C@@H](NC(=O)[C@@H](N)Cc2ccc(O)cc2)C(=O)NCC(=O)N[C@@H](Cc2ccc(F)cc2)C(=O)N1`, the result in the experiment on Mus musculus [21], with Mus musculus [22], with Mus musculus [23], in the experiment on Mus musculus [26] and in the experiment on Mus musculus [30] was inactive. The outcome with Mus musculus [24], with Mus musculus [25], in the experiment with Mus musculus [27], in the experiment on Mus musculus [28] and in the experiment with Mus musculus [29] was Active. Further, the maximal response (Emax) in [5] was 110%; in experiment [6], 89.3%; on Mu-type opioid receptor it was 95.3%.

One may read the Emax as the greatest response seen or fitted, relative to the assay's reference. One may read the ED50 as the midpoint of the dose-response relation.

For the origin of these results see ChEMBL document CHEMBL5532665 (J Med Chem, 2024).
